# Patent US10058611B2, “Use of α-(8-quinolinyloxy) mono-substituted phthalocyanine zinc for treatment of psoriasis” (BEIJING GUIQIANJIN MEDICAL SCIENCE AND TECHNOLOGY CO., LTD., priority 2014, dated 2018)
# Assays:
# [1] = test system: HaCaT cells; assay: Proliferation inhibition of HaCaT cells after 670 nm irradiation (MTT); format: cell-based, human
# Procedure: HaCaT cell line, a cell line of normally mutated and immortalized human keratinocyte, is one of the most wildly used cell models for the currently study of psoriasis. As compared with primary cultured keratinocytes, HaCaT cells have similar biological properties, but its operation is simpler.
# HaCaT cells were routinely cultured in RPMI-1640 medium containing 10% fetal bovine serum at 37° C. in a 5% CO2 incubator. The cells were harvested in logarithmic growth phase, digested with 0.25% trypsin (containing EDTA), adjusted to a cell density of 2×10^5 cells/mL and seeded in a 96-well plate, 100 μL per each well; after incubation for 24 hours, α-(8-quinolinyloxy) mono-substituted phthalocyanine zinc was added at concentrations of 0.001 μg/mL, 0.01 μg/mL, 0.1 μg/mL, 1 μg/mL and 10 μg/mL respectively and three complex wells were set for each concentration. […] The culture medium was discarded; 200 μL of MTT solution (0.5 mg/mL) was added to each well; the cells were incubated for additional 4 hours; then, 200 μL of dimethyl sulfoxide was added to each well and the absorbance value of each well was measured by a microplate reader at 545 nm (reference wavelength: 450 nm). 3 times of parallel measurements were conducted and the mean value was calculated. The inhibition rate of proliferation was calculated and IC50 was calculated by Bliss method.
# [2] = test system: mouse vaginal epithelial cells; assay: Diethylstilbestrol-induced excessive proliferation of mouse vaginal epithelial cells (PDT, mitotic index); format: in vivo, ICR mice; conditions: for Mitotic Index: x ± s, n = 10
# Text: Estrogen (for example diethylstilbestrol) may induce the active proliferation of mouse vaginal epithelial cells, thereby accelerating the turnover of epithelial cells; and colchicine may make the cell cycle stagnated in the mitotic metaphase and then the inhibition effects of a test substance on mitosis and excessive cell proliferation may be observed. This model may simulate the characteristic of overly rapid proliferation of epithelial cells in psoriasis patients, is simple and easy to obtain, and is one of the most common animal models in the assessment of drug efficacy for psoriasis.
# Sixty ICR mice were taken and randomly divided into 6 groups according to weights: blank control group, model control group, irradiation without administration group and PDT groups 1, 2 and 3. Except for the blank control group, all of other groups were intraperitoneally injected with diethylstilbestrol (0.2 mg/mouse), once-daily for 3 days. […] After protection from light for 6 hours, the PDT groups 1, 2 and 3 and the irradiation without administration group were subjected to laser irradiation by using a semiconductor photodynamic therapeutic instrument; the irradiation conditions were 100 mW×540 s, 300 mW×60 s, 100 mW×60 s and 300 mW×540 s, respectively; the spot diameter was 3 cm; and the abdomen of mice was irradiated. The blank control group and the model control group were not subjected to irradiation. After one week post-irradiation, mice of each group were intraperitoneally injected with colchicine at a dose of 2 mg/kg, making the cell mitosis stagnated in the mitotic metaphase. After 4 hours post-injection of colchicine, animals were sacrificed by anesthesia. Mouse vagina was taken, fixed in 10% formaldehyde solution, conventionally dehydrated, embedded in paraffin, sliced and stained with HE; 300 basal cells were counted under a microscope and the number of mitotic cells was calculated and the mitotic index was calculated (number of mitotic cells per 100 basal cells).
# [3] = test system: propranolol-induced psoriasis-like lesions; assay: Propranolol-induced psoriasis-like lesions on guinea pig ears (PDT, histology); format: in vivo
# Text: Propranolol is a β-adrenergic receptor blocking agent, and it may be applied to guinea pig skin to block the β-adrenergic receptor in keratinocytes and thereby reducing the intracellular cAMP level, leading to histopathological changes similar to psoriasis such as hyperkeratosis, parakeratosis and acanthosis of animal epidermis, which are the same as human psoriatic lesions at the molecular level. Application of propranolol to ear skin of guinea pig to replicate a psoriasis-like skin model is often used for observing the therapeutic effect of a drug on psoriasis.
# Preparation method for 5% propranolol liniment: dissolving 5 g powder of propranolol API in 50 mL of 50% ethanol, adding 5 g of polyoxyethylene pyrrolidone 30, 2.5 mL of azone, 2.5 mL of propylene glycol, and finally adding 50% ethanol to 100 mL. 5% propranolol was prepared fresh for use. Forty-two guinea pigs were randomly divided into a blank control group and a model-establishing group according to weights, 6 guinea pigs in the blank control group and 36 guinea pigs in the model-establishing group. 5% propranolol was applied uniformly on the back of both ears of guinea pigs in the model-establishing group at a dose of 0.1 mL/ear, once in the morning and once in the afternoon, and the administration lasted for continuous 4 weeks. After the model was established, the guinea pigs in the model-establishing group were randomly divided into 6 groups according to weights again, 6 guinea pigs in each group. The 6 groups were model control group, irradiation without administration group, administration without irradiation group, injection administration group and topical administration groups 1 and 2, respectively. The administration without irradiation group and the injection administration group were intravenously injected with α-(8-quinolinyloxy) mono-substituted phthalocyanine zinc solution at a dose of 0.45 mg/kg and the topical administration groups 1 and 2 were respectively applied with 5% and 1% α-(8-quinolinyloxy) mono-substituted phthalocyanine zinc liniments at a dose of 0.1 mL/ear. […] were not administrated. After protection from light for 24 hours, the irradiation without administration group, the injection administration group and the topical administration groups 1 and 2 were subjected to laser irradiation by using a semiconductor photodynamic therapeutic instrument with the following irradiation conditions: output power, 1,000 mW; spot diameter, 6 cm; irradiation time, 399 s; irradiation dose, 14 J/cm^2. After irradiation, animals were protected from light for 48 hours, and then recovered for 3 days. A photodynamic therapy (administration, irradiation, protection from light and recovery) was repeated once according to the abovementioned steps. […]
substance,measurement,setting,value
α-(8-quinolinyloxy) mono-substituted phthalocyanine zinc,Proliferation of HaCaT cells (result in words),"[1]; 0.001-10 μg/mL, 670 nm irradiation",inhibit the proliferation of HaCaT cells in a concentration-dependent manner
same,"IC50, inhibition of proliferation of HaCaT cells","[1]; 4 h incubation, 670 nm irradiation 1500 mW, spot 8 cm, 180 s, MTT 48 h after irradiation, Bliss method",0.197 ± 0.022 µg/mL
same,Mitotic Index,"[2]; PDT group 1: dose 2 mg/kg i.p., irradiation 540 s, 100 mW",6.4 ± 2.2^##^ %
same,Mitotic Index,"[2]; PDT group 2: dose 1 mg/kg i.p., irradiation 60 s, 300 mW",7.2 ± 2.6 %
same,Mitotic Index,"[2]; PDT group 3: dose 0.5 mg/kg i.p., irradiation 60 s, 100 mW",10.3 ± 4.3 %
same,Mitotic index compared with the model control group (result in words),"[2]; PDT groups 1, 2 and 3",significantly reduced
same,Psoriasis-like lesions of the guinea pig ear (result in words),"[3]; administration without irradiation group: 0.45 mg/kg i.v., no laser",improved to some extent but not obviously
same,Psoriasis-like lesions of the guinea pig ear (result in words),"[3]; injection administration group: 0.45 mg/kg i.v., laser 1,000 mW, 399 s, 14 J/cm^2, two photodynamic therapies",improved significantly
same,Psoriasis-like lesions of the guinea pig ear (result in words),"[3]; topical administration group 1: 5% liniment 0.1 mL/ear, laser 1,000 mW, 399 s, 14 J/cm^2, two photodynamic therapies",improved significantly
same,Psoriasis-like lesions of the guinea pig ear (result in words),"[3]; topical administration group 2: 1% liniment 0.1 mL/ear, laser 1,000 mW, 399 s, 14 J/cm^2, two photodynamic therapies",improved significantly
